Measured values published in ChEMBL document CHEMBL5393454, “Compounds inhibitors of mettl3” (2022).

Biological target: N6-adenosine-methyltransferase catalytic subunit (Homo sapiens, UniProt Q86U44)
Test: Inhibition of full length His-tagged METTL3 (unknown origin) co-expressed with full length FLAG-tagged METTL14 in baculovirus expression system preincubated using 5'P-uacacucgaucuggacuaaagcugcuc-3' as substrate and SAM as cosubstrate pre-incubated for 10 mins followed by addition of substrates and measured after 60 mins by RapidFire mass spectrometry (RF/MS) analysis

N6-adenosine-methyltransferase catalytic subunit, sequence (Q86U44 whole entry): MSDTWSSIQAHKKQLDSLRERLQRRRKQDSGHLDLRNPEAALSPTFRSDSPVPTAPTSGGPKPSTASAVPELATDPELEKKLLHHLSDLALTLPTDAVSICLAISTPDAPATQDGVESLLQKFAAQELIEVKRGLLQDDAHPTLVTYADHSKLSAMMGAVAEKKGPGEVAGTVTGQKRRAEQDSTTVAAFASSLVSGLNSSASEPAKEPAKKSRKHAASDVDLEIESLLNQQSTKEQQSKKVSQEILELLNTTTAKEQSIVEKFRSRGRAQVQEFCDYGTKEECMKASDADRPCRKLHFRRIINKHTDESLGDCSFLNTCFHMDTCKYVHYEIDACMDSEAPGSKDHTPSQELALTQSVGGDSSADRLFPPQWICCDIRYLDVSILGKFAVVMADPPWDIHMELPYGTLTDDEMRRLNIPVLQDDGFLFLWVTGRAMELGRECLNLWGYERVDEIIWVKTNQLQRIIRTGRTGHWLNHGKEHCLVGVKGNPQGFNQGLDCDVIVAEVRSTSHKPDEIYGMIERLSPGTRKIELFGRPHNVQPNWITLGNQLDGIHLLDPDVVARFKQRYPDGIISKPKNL

| SMILES | IC50 [µM] |
| --- | --- |
| Nc1ncnc2c1c(Br)cn2[C@@H]1O[C@H](/C=C/CCCNCC23CC(F)(C2)C3)[C@@H](O)[C@H]1O | < 0.006 |
| Nc1ncnc2c1c(Br)cn2[C@@H]1C[C@H](c2ccc3cc(CNCC45CC(F)(C4)C5)[nH]c3c2)[C@@H](O)[C@H]1O | < 0.006 |
| Nc1ncnc2c1c(Br)cn2[C@@H]1O[C@H](/C=C/CCCNCC2CC(F)(F)C2)[C@@H](O)[C@H]1O | 0.0227 |
